Reference: patent publication US20250136584A1, “Benzimidazole Or Azabenzimidazole Compound, Preparation Method Therefor And Use Thereof” (Chengdu Di'Ao Jiuhong Pharmaceutical Factory, priority 2022, published 2025)

Legend:
GLP1R = GLP1R (Homo sapiens, UniProt P43220); test: Agonist activity on GLP1R/CRE-LUC HEK293 cells (luciferase reporter, ONE-Glo); assay type: cell-based; details: for EC50: GLP1R/CRE-LUC HEK293 cells, 6 hours incubation, chemiluminescence signal; for activity compared with comparative example compounds PF-06882961, DB02, DB03 and DB06: from Table 1, also much higher than DB04 and DB05
Chain of GLP1R (P43220 24-463): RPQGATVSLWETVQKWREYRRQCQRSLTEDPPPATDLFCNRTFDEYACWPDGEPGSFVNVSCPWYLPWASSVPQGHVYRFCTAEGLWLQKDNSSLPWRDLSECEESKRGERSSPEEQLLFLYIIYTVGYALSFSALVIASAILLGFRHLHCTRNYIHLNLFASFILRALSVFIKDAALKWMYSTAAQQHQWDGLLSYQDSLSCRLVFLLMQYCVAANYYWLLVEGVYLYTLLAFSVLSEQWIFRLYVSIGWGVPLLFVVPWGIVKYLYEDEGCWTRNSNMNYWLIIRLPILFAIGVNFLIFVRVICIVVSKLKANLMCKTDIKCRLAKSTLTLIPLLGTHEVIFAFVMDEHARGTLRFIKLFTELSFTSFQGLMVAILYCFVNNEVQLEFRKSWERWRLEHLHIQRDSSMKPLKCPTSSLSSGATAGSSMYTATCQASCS
Method: Logarithmically growing GLP1R/CRE-LUC HEK293 cells (purchased from Nanjing Cobioer) were digested, the digested cells were re-suspended in a DMEM+10% FBS culture medium, and a cell density was adjusted to be 3.5*10^5/mL. The cell solution was added into a 96-well cell culture plate by 100 µL/well, and the plate was cultured overnight in an incubator (37° C., 5% CO2).
A compound was dissolved with DMSO to prepare a storage solution at an initial concentration of 10 mM, an initial concentration of the small molecular compound was 0.2 mM, and the compound was diluted by 3 times and 10 points were diluted, while the 11th point was DMSO. Another 96-well plate was taken, added with 95 μL of cell culture solution (DMEM+10% FBS) in each well, then added with 5 μL of to-be-tested samples at different concentrations in each well, mixed evenly, and then added with 11 μL of to-be-tested samples at different concentrations in each well of the cell culture plate, and each sample had two wells. The culture plate was incubated in an incubator for 6 hours (37° C., […]). The 96-well cell culture plate was taken out, added with 100 μL of ONE-Glo™ reagent in each well, and incubated at room temperature for 10 minutes, and a chemiluminescence signal value was measured with an enzyme-labeled instrument. Data were processed and analyzed by Microsoft Excel and Graphpad Prism6 to obtain an EC50 value of the compound.

hERG potassium channel = target: T1, hERG potassium channel (Homo sapiens, UniProt Q12809); test: hERG test, patch clamp on HEK-293 cells stably expressing hERG potassium channel; assay type: cell-based; details: HEK-293 cell line stably expressing hERG, read-out: IC50 (μM) of inhibitory effect on hERG potassium channel current
T1 construct: host or cells: HEK-293 stably expressing hERG
T1 sequence (Q12809 whole entry): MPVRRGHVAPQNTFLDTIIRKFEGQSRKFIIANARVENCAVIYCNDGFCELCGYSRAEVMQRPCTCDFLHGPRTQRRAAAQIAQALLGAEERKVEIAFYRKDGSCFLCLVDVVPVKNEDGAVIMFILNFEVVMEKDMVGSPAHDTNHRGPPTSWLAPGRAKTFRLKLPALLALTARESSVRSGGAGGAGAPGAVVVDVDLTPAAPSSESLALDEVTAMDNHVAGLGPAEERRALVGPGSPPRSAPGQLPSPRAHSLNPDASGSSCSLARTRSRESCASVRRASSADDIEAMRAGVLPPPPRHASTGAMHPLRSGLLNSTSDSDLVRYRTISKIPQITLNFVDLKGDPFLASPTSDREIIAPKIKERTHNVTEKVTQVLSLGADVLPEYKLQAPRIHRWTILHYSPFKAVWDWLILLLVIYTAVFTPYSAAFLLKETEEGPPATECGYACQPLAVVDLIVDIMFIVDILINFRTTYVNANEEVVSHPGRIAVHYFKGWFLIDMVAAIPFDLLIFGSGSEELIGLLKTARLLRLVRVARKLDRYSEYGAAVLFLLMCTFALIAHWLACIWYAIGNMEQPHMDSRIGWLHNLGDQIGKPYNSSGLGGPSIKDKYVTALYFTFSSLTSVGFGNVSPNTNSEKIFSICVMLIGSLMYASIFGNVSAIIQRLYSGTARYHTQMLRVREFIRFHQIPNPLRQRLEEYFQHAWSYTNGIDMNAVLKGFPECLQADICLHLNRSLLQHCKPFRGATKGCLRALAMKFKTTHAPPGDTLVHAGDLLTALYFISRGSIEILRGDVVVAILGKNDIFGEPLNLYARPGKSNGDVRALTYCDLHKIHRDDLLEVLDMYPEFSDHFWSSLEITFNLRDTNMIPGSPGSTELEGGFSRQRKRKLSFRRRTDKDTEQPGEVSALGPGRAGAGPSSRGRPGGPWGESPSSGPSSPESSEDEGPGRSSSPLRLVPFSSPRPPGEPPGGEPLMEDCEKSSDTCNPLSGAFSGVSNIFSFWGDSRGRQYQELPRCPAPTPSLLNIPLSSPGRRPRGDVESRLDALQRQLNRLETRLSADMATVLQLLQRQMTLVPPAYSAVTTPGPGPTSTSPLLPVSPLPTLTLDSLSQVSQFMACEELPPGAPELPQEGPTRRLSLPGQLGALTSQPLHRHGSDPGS
Method: Test object: influences of compounds on an hERG potassium channel current were tested by a full-automatic patch clamp method.
• (1) An HEK-293 cell line stably expressing an hERG potassium channel was adopted, and hERG potassium channel cells were purchased from Creacell Company. • (2) The HEK-293 cell line stably expressing the hERG potassium channel was cultured in a DMEM culture medium containing 10% fetal bovine serum and 0.8 mg/mL G418 at 37° C. under a carbon dioxide concentration of 5%. • (3) Cell passage: the old culture medium was removed, and the cells were washed once with PBS, then added with 1 mL of TrypLE™ Express solution, and incubated at 37° C. for about 0.5 minutes. When the cells were separated from a dish bottom, about 5 mL of complete culture medium preheated at 37° C. was added. A cell suspension was gently blown with a straw to separate the aggregated cells. The cell suspension was transferred to a sterile centrifuge tube and centrifuged at 1000 rpm for 5 minutes to collect the cells. In amplification or maintenance of culture, the cells were inoculated into a 6 cm cell culture dish, and the number of cells inoculated into each cell culture dish was 2.5×10^5 cells (final volume: 5 mL). In order to maintain an electrophysiological activity of cells, a cell density should not exceed 80%. • (4) In patch clamp detection, before the test, the cells were separated by TrypLE™ Express, and 4×10^3 cells were spread on a cover slip and cultured in a 24-well plate (final volume: 500 μL). After 18 hours, the test was carried out for detection. Data analysis:
A current after an effect of each drug concentration and a blank control current
were standardized first, and then an inhibition rate
corresponding to each drug concentration was calculated. A mean number and a standard error were calculated for each concentration, and a semi-inhibitory concentration of each compound was calculated by the following equation: […]
A dosage-dependent effect was nonlinearly fitted by the above equation, wherein C represented a concentration of a test sample, IC50 represented a semi-inhibitory concentration, and h represented a Hill coefficient. Curve fitting and IC50 calculation were completed by IGOR software.

hGLP1R mice = test: Glucose tolerance test in hGLP1R mice after single oral administration; assay type: in vivo; details: 1 mg/kg oral once; for onset of blood glucose reduction compared with comparative example compound DB05 / blood glucose reduction effect compared with comparative example compound DB05: FIG. 1 and FIG. 2; for blood glucose reduction effect compared with PF-06882961: glucose 2 g/kg i.p. 60 minutes later; for blood glucose reduction effect compared with PF-06882961 / blood glucose reduction effect compared with comparative example compound DB05: blood glucose curves and AUC (0 to 120 minutes)
Method: Genetically engineered hGLP1R mice, male, purchased from Biocytogen Jiangsu Gene Biotechnology Co., Ltd., were fasted overnight before the glucose tolerance test (IPTGG), without water deprivation. A solvent or corresponding compound was orally administered once, a glucose solution (2 g/kg) was intraperitoneally injected 60 minutes after administration, and a blood glucose value before administration of glucose (equivalent to a blood glucose value of 0 minute) and blood glucose values 15 minutes, 30 minutes, 60 minutes and 120 minutes after administration of glucose were measured. The solvent was 5% DMSO+40% PEG400+55% physiological saline, and a dosage of the compound was 1 mg/kg (n=3).

SMILES | EC50 (GLP1R) [nM] | activity compared with comparative example compounds PF-06882961, DB02, DB03 and DB06 (GLP1R) | other results
O=C(O)c1ccc2nc(CC3CCN(c4cccc(OCc5ccc(Cl)c6ccoc56)n4)CC3)n(C[C@@H]3CCO3)c2c1 [Compound 1] | 114 |  | 
O=C(O)c1ccc2nc(CC3=CCN(c4cccc(OCc5ccc(Cl)c6ccoc56)n4)CC3)n(C[C@@H]3CCO3)c2c1 [Compound 2] | 101 |  | 
N#Cc1ccc(COc2cccc(N3CCC(Cc4nc5ccc(C(=O)O)cc5n4C[C@@H]4CCO4)CC3)n2)c2occc12 [Compound 3] | 65.1 |  | 
O=C(O)c1ccc2nc(CC3CC=C(c4cccc(OCc5ccc(Cl)c6ccoc56)n4)CC3)n(C[C@@H]3CCO3)c2c1 (stereo partly drawn) [Compound 7] | 20.9 |  | IC50 (hERG potassium channel): > 30 µM
O=C(O)c1ccc2nc(CN3CC=C(c4cccc(OCc5cccc6c5oc5ccccc56)n4)CC3)n(C[C@@H]3CCO3)c2c1 [Compound 13] | 13.6 | higher | 
O=C(O)c1ccc2nc(CC3CC=C(c4cccc(OCc5cccc6c5oc5ccccc56)n4)CC3)n(C[C@@H]3CCO3)c2c1 (stereo partly drawn) [Compound 15] | 25.8 |  | 
O=C(O)c1ccc2nc(Cc3cc(F)c(-c4cccc(OCc5ccc(Cl)c6ccoc56)n4)cc3F)n(C[C@@H]3CCO3)c2c1 [Compound 25] | 11.5 | higher | 
O=C(O)c1ccc2nc(Cc3ccc(-c4cccc(OCc5ccc(Cl)c6ccoc56)n4)cc3F)n(C[C@@H]3CCO3)c2n1 [Compound 38] | 7.53 | higher | onset of blood glucose reduction compared with comparative example compound DB05 (hGLP1R mice): took effect more quickly; blood glucose reduction effect compared with PF-06882961 (hGLP1R mice): significantly better; blood glucose reduction effect compared with comparative example compound DB05 (hGLP1R mice): significantly better
O=C(O)c1ccc2nc(Cc3ccc(-c4cccc(OCc5cccc6c5oc5ccccc56)n4)cc3F)n(C[C@@H]3CCO3)c2c1 [Compound 61] |  |  | onset of blood glucose reduction compared with comparative example compound DB05 (hGLP1R mice): took effect more quickly; blood glucose reduction effect compared with PF-06882961 (hGLP1R mice): significantly better; blood glucose reduction effect compared with comparative example compound DB05 (hGLP1R mice): significantly better
O=C(O)c1ccc2nc(Cc3ccc(-c4cccc(OCc5ccc(F)c6ccoc56)n4)cc3F)n(C[C@@H]3CCO3)c2c1 [Compound 87] |  |  | IC50 (hERG potassium channel): > 30 µM
O=C(O)c1ccc2nc(Cc3ccc(-c4ccc(F)c(OCc5cccc6c5oc5ccccc56)n4)cc3F)n(C[C@@H]3CCO3)c2c1 [Compound 97] | 7.57 | higher | 
Cc1cc2c(Cl)ccc(COc3cccc(-c4ccc(Cc5nc6ccc(C(=O)O)cc6n5C[C@@H]5CCO5)c(F)c4)n3)c2o1 [Compound 102] | 9.1 | higher | 
O=C(O)c1ccc2nc(CN3CC=C(c4cccc(OCc5ccc(Cl)c6ccoc56)n4)CC3)n(C[C@@H]3CCO3)c2c1 [DB02, reference compound] | 13.6 |  | 
COCCn1c(Cc2ccc(-c3cccc(OCc4ccc(C#N)c5ccoc45)n3)cc2F)nc2ccc(C(=O)O)cc21 [DB04, reference compound] | 275 |  | 
COCCn1c(Cc2ccc(-c3cccc(OCc4ccc(Cl)c5ccoc45)n3)cc2F)nc2ccc(C(=O)O)cc21 [DB05, reference compound] | 312 |  | 

More lines, in order of falling EC50 (GLP1R), values ahead:

EC50 (GLP1R) [nM] | activity compared with comparative example compounds PF-06882961, DB02, DB03 and DB06 (GLP1R) | SMILES | other results
6.76 | higher | O=C(O)c1ccc2nc(CN3CC=C(c4cccc(OCc5cccc6c5oc5ccccc56)n4)CC3)n(C[C@@H]3CCO3)c2n1 [Compound 14] | 
5.87 | higher | O=C(O)c1ccc2nc(CC3CC=C(c4ccc(F)c(OCc5ccc(Cl)c6ccoc56)n4)CC3)n(C[C@@H]3CCO3)c2c1 (stereo partly drawn) [Compound 106] | blood glucose reduction effect compared with PF-06882961 (hGLP1R mice): significantly better
3.2 | higher | N#Cc1ccc(COc2cccc(-c3ccc(Cc4nc5ccc(C(=O)O)cc5n4C[C@@H]4CCO4)c(F)c3)n2)c2occc12 [Compound 19] | onset of blood glucose reduction compared with comparative example compound DB05 (hGLP1R mice): took effect more quickly; blood glucose reduction effect compared with PF-06882961 (hGLP1R mice): significantly better; blood glucose reduction effect compared with comparative example compound DB05 (hGLP1R mice): significantly better
3.11 | higher | O=C(O)c1ccc2nc(CC3CC=C(c4cccc(OCc5ccc(Cl)c6cc(Cl)oc56)n4)CC3)n(C[C@@H]3CCO3)c2c1 (stereo partly drawn) [Compound 108] | 
3.02 | higher | O=C(O)c1ccc2nc(Cc3ccc(-c4nc(OCc5ccc(Cl)c6ccoc56)c(F)cc4F)cc3F)n(C[C@@H]3CCO3)c2c1 [Compound 96] | 
2.33 | higher | O=C(O)c1ccc2nc(Cc3ccc(-c4nc(OCc5ccc(Cl)c6ccoc56)ccc4F)cc3F)n(C[C@@H]3CCO3)c2c1 [Compound 95] | 
1.97 | higher | N#Cc1ccc(COc2cccc(-c3ccc(Cc4nc5ccc(C(=O)O)nc5n4C[C@@H]4CCO4)c(F)c3)n2)c2occc12 [Compound 67] | 
1.9 | higher | O=C(O)c1ccc2nc(CC3CC=C(c4ccc(F)c(OCc5ccc(Cl)c6cc(Cl)oc56)n4)CC3)n(C[C@@H]3CCO3)c2c1 (stereo partly drawn) [Compound 107] | blood glucose reduction effect compared with PF-06882961 (hGLP1R mice): significantly better
1.76 | higher | O=C(O)c1ccc2nc(Cc3ccc(-c4cccc(OCc5ccc(Cl)c6cc(F)oc56)n4)cc3F)n(C[C@@H]3CCO3)c2c1F [Compound 92] | 
1.76 | higher | O=C(O)c1ccc2nc(Cc3ccc(-c4ccc(F)c(OCc5ccc(F)c6cc(Cl)oc56)n4)cc3F)n(C[C@@H]3CCO3)c2c1 [Compound 104] | IC50 (hERG potassium channel): > 30 µM
1.17 | higher | O=C(O)c1ccc2nc(Cc3ccc(-c4ccc(F)c(OCc5ccc(F)c6ccoc56)n4)cc3F)n(C[C@@H]3CCO3)c2c1 [Compound 103] | 
1.09 | higher | O=C(O)c1cc(F)c2nc(Cc3ccc(-c4cccc(OCc5ccc(Cl)c6ccoc56)n4)cc3F)n(C[C@@H]3CCO3)c2c1 [Compound 105] | 
0.76 | higher | O=C(O)c1ccc2nc(Cc3ccc(-c4cccc(OCc5ccc(Cl)c6ccoc56)n4)cc3F)n(C[C@@H]3CCO3)c2c1F [Compound 91] | 
0.69 | higher | O=C(O)c1ccc2nc(Cc3c(F)cc(-c4cccc(OCc5ccc(Cl)c6ccoc56)n4)cc3F)n(C[C@@H]3CCO3)c2c1 [Compound 101] | 
